This assay addresses NS3 (Hepatitis C virus, UniProt A3EZJ3). Briefly: Inhibition of Hepatitis C virus NS3 serine protease. On the set-up: species or system Hepacivirus hominis.

In ChEMBL document CHEMBL1137058, “Novel 2-oxoimidazolidine-4-carboxylic acid derivatives as hepatitis C virus NS3-4A serine protease inhibitors: synthesis, activity, and X-ray crystal structure of an enzyme inhibitor complex” (Bioorg Med Chem Lett, 2004) one finds Ki data, which are given here for eleven compounds.

Structures are written as SMILES.

Chain of NS3 (A3EZJ3 whole entry): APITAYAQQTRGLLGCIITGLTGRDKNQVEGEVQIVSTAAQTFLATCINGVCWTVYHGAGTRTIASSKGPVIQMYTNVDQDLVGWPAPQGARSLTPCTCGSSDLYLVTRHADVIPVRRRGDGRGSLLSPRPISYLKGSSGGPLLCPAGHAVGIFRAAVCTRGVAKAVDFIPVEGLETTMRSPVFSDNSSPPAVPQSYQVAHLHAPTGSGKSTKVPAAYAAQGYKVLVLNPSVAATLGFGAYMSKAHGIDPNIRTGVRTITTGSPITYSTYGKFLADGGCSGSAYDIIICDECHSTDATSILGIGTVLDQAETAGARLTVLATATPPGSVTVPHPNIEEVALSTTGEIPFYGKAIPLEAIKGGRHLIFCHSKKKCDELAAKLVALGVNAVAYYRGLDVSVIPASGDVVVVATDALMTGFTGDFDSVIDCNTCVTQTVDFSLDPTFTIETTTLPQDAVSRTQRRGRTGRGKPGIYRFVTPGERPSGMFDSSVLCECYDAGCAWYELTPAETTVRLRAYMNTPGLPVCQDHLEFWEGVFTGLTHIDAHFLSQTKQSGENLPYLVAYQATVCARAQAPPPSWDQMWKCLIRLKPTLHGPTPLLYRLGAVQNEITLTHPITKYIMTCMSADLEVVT

The Ki is the dissociation constant of the complex between target and ligand, obtained from inhibition or displacement. Low readings indicate a stronger hold on the target, high ones a looser hold on the target. As for `C=CCNC(=O)C(=O)C(CCC)NC(=O)[C@@H]1CN(CC(=O)OCC)C(=O)N1C(=O)[C@@H](NC(=O)OC(C)(C)C)C(C)C` (stereo partly specified), the Ki is 150 µM. Compound `C=CCNC(=O)C(=O)[C@H](CCC)NC(=O)[C@@H]1CN(Cc2ccccc2)C(=O)N1C(=O)[C@@H](NC(=O)[C@@H](NC(=O)[C@H](CCC(=O)OC(C)(C)C)NC(=O)[C@H](CCC(=O)OC(C)(C)C)NC(C)=O)C(C)C)C(C)C` returned a Ki of 61 µM. On to `C=CCNC(=O)C(=O)[C@H](CCC)NC(=O)[C@@H]1CN(Cc2ccccc2)C(=O)N1C(=O)[C@@H](NC(=O)[C@@H](NC(=O)[C@H](CCC(=O)O)NC(=O)[C@H](CCC(=O)O)NC(C)=O)C(C)C)C(C)C`, for which the affinity corresponds to a Ki of 1 µM. Under `C=CCOC(=O)CNC(=O)C(=O)[C@H](CCC)NC(=O)[C@@H]1CN(Cc2ccccc2)C(=O)N1C(=O)[C@@H](NC(=O)[C@@H](NC(=O)[C@H](CCC(=O)O)NC(=O)[C@H](CCC(=O)O)NC(C)=O)C(C)C)C(C)C` stands 1 µM; under `C=CCOC(=O)CNC(=O)C(=O)[C@H](CCC)NC(=O)[C@@H]1CN(Cc2ccc(Cl)c(Cl)c2)C(=O)N1C(=O)[C@@H](NC(=O)[C@@H](NC(=O)[C@H](CCC(=O)O)NC(=O)[C@H](CCC(=O)O)NC(C)=O)C(C)C)C(C)C`, 0.31 µM.

For `C=CCNC(=O)C(=O)[C@H](CCC)NC(=O)[C@@H]1CN(CC(=O)OCC)C(=O)N1C(=O)[C@@H](NC(=O)[C@@H](NC(=O)[C@H](CCC(=O)O)NC(=O)[C@H](CCC(=O)O)NC(C)=O)C(C)C)C(C)C`, the inhibition constant (Ki) worked out at 4 µM. Under `C=CCNC(=O)C(=O)[C@H](CCC)NC(=O)[C@@H]1CNC(=O)N1C(=O)[C@@H](NC(=O)[C@@H](NC(=O)[C@H](CCC(=O)OC(C)(C)C)NC(=O)[C@H](CCC(=O)OC(C)(C)C)NC(C)=O)C(C)C)C(C)C` stands 69 µM; under `C=CCNC(=O)C(=O)[C@H](CCC)NC(=O)[C@@H]1CNC(=O)N1C(=O)[C@@H](NC(=O)[C@@H](NC(=O)[C@H](CCC(=O)O)NC(=O)[C@H](CCC(=O)O)NC(C)=O)C(C)C)C(C)C`, 46 µM. Turning to `C=CCNC(=O)C(=O)[C@H](CCC)NC(=O)[C@@H]1CN(CC(=O)OCC)C(=O)N1C(=O)[C@@H](NC(=O)[C@@H](NC(=O)[C@H](CCC(=O)OC(C)(C)C)NC(=O)[C@H](CCC(=O)OC(C)(C)C)NC(C)=O)C(C)C)C(C)C`, affinity was put at a Ki of 30 µM. As to `C=CCOC(=O)CNC(=O)C(=O)C(CCC)NC(=O)[C@@H]1CN(Cc2ccccc2)C(=O)N1C(=O)[C@@H](NC(=O)[C@@H](NC(=O)[C@H](CCC(=O)OC(C)(C)C)NC(=O)[C@H](CCC(=O)OC(C)(C)C)NC(C)=O)C(C)C)C(C)C` (stereo partly specified), the inhibitory constant (Ki) was greater than 100 µM.

Regarding `C=CCOC(=O)CNC(=O)C(=O)C(CCC)NC(=O)[C@@H]1CN(Cc2ccc(Cl)c(Cl)c2)C(=O)N1C(=O)[C@@H](NC(=O)[C@@H](NC(=O)[C@H](CCC(=O)OC(C)(C)C)NC(=O)[C@H](CCC(=O)OC(C)(C)C)NC(C)=O)C(C)C)C(C)C` (stereo partly specified), the Ki is greater than 100 µM.
